From patent publication US4735955A, “2-substituted cycloheptoimidazole derivatives and anti-ulcerative agents containing the same” (Kotobuki Seiyaku Co., Ltd., priority 1985, dated 1988)
One block for each compound: values may come before it.

How the values were obtained:
gastric-acid secretion = assay: Gastric acid antisecretory activity, pylorus-ligated rat (method of Shay); format: in vivo; settings: intraduodenal, 50 mg/kg intraduodenally just after pylorus ligation, 4 hours after ligation, read-out: Total Acid Inhibition
Procedure: Gastric acid antisecretory activities
Inhibitory activities of gastric-acid secretion are determined by the method of Shay (Gastroenterology 26, 906). Rats are fasted for 24 hours and pylorus ligation is carried out under light anesthesia.
Drug is given intraduodenally just after the ligation. Four hours after ligation, the stomach of the rat is removed and the acidity of gastric juice is determined.

[1] = Cytoprotective activity, inhibition of ethanol-induced ulcer (method of Robert); format: in vivo; settings: rat, 100 mg/kg perorally 30 minutes before 1 ml absolute ethanol, stomach removed one hour after ethanol
Procedure: Cytoprotective Activities
Inhibitory activities of ethanol-induced ulcer are determined by the method of Robert (Gastroenterology 77, 433~443). Rats are fasted for 24 hours and are given 1 ml of absolute ethanol perorally. One hour after administration of ethanol, the stomach of the rat is removed. The length of each ulcer occurring in the grandulor stomach is determined and each ulcer in one rat is accounted as the ulcer-index. The test compounds are given perorally 30 minutes before absolute ethanol administration.

(H^+,K^+)ATPase = molecular target: T1, (H^+,K^+)ATPase (Sus scrofa, UniProt P19156); assay: Inhibition of (H^+,K^+)ATPase activity (method of Fellenius); format: biochemical; settings: 3 × 10^-4 M, pig gastric mucosa, pH 7.4, 37° C.
T1 construct: (H^+,K^+)ATPase is prepared from the pig gastric mucosa; from tissue; host or cells: pig gastric mucosa
Procedure: Inhibition of (H^+,K^+)ATPase activities. Inhibition of (H^+,K^+) ATPase activities is determined by the method of F. Fellenius et al., Nature 290, pp. 159~161, 1981. (H^+,K^+)ATPase is prepared from the pig gastric mucosa and the test compound is incubated with […], 40 mM of tris-buffer (pH 7.4), 2 mM of MgCl2 and 10 mM of KCl at 37° C. Inorganic phosphate occurring by stimulation of ATPase is determined.

T1 sequence (P19156 2-1034 limits assumed): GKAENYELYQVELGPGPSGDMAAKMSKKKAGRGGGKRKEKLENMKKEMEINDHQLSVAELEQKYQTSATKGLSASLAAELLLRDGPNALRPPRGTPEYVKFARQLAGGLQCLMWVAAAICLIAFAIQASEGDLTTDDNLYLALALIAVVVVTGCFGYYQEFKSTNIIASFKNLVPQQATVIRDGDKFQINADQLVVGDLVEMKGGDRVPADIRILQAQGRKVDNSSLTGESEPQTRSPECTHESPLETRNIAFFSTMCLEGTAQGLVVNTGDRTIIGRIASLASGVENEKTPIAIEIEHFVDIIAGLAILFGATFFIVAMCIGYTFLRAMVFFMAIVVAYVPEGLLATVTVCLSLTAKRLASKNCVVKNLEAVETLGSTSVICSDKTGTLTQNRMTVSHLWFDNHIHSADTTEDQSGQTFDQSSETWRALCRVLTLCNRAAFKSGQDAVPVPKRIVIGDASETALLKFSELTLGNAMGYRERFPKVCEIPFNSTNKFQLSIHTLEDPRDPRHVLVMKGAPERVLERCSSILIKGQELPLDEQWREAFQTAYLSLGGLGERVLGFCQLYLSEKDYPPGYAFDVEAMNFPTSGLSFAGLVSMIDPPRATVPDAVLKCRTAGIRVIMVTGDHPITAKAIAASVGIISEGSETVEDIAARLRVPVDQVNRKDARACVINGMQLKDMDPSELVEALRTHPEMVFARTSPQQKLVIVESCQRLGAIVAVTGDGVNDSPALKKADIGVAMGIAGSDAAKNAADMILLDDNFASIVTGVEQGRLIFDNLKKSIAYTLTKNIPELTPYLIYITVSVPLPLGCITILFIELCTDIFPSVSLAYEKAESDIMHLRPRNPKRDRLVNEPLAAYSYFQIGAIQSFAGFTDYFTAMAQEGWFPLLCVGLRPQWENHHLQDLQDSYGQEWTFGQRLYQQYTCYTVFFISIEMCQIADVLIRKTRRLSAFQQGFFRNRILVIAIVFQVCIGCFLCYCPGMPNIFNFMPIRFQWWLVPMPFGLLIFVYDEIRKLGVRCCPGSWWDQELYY
T1 sequence (P18434 whole entry partner): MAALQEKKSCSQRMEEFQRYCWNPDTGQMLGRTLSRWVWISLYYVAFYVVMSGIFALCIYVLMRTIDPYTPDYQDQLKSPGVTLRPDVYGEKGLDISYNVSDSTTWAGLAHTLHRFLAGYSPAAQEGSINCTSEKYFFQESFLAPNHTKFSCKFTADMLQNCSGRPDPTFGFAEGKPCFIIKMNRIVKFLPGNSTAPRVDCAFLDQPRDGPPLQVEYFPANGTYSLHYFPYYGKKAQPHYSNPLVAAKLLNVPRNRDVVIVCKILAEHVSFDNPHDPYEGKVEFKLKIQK

Compound: CC(C)c1ccc2nc(SCc3ccccn3)nc-2cc1 [Compound 1, 2-(2-Pyridyl)methylthio-6-isopropyl-cycloheptoimidazole]
- inhibition in vivo at 50 mg/kg (gastric-acid secretion): 80.5%

Compound: c1ccc2nc(SCCn3cnc4ccccc43)nc-2cc1 [Compound 3, 2-(1-Benzimidazolyl)ethylthio-cycloheptoimidazole]
- inhibition in vivo at 50 mg/kg (gastric-acid secretion): 22.4%

Compound: CSc1nnc(CSc2nc3cccccc-3n2)s1 [Compound 8, 2-(2-Methylthio-1,3,4-thiadiazole-5-yl)methylthio-cycloheptoimidazole]
- inhibition in vivo at 50 mg/kg (gastric-acid secretion): 20.6%

Compound: c1ccc2nc(SCc3cccnc3)nc-2cc1 [Compound 9, 2-(3-Pyridyl)methylthio-cycloheptoimidazole]
- Inhibition of ethanol-induced ulcer [1]: 83.1%

Compound: c1ccc2nc(SCc3ccn[nH]3)nc-2cc1 [Compound 10, 2-(5-Pyrazolyl)methylthio-cycloheptoimidazole]
- inhibition in vivo at 50 mg/kg (gastric-acid secretion): 54.4%

Compound: c1ccc2nc(SCc3ccncc3)nc-2cc1 [Compound 12, 2-(4-Pyridyl)methylthio-cycloheptoimidazole]
- inhibition in vivo at 50 mg/kg (gastric-acid secretion): 66.8%

Compound: c1ccc2nc(SCc3c[nH]cn3)nc-2cc1 [Compound 13, 2-(4-imidazolyl)methylthio-cycloheptoimidazole]
- inhibition in vivo at 50 mg/kg (gastric-acid secretion): 66.5%
- Inhibition of ethanol-induced ulcer [1]: 88.1%

Compound: Nc1nc(CSc2nc3cccccc-3n2)cs1 [Compound 14, 2-(2-Aminothiazole-4-yl)methylthio-cycloheptoimidazole]
- Inhibition of ethanol-induced ulcer [1]: 90.3%

Compound: CC(C)c1ccc2nc(SCc3csc(N)n3)nc-2cc1 [Compound 15, 2-(2-Aminothiazole-4-yl)methylthio-6-isopropyl-cycloheptoimidazole]
- inhibition in vivo at 50 mg/kg (gastric-acid secretion): 21%
- Inhibition of ethanol-induced ulcer [1]: 90.0%

Compound: COc1ccc(CSc2nc3cccccc-3n2)cc1 [Compound 26, 2-(p-Methoxyphenyl)methylthio-cycloheptoimidazole]
- inhibition in vivo at 50 mg/kg (gastric-acid secretion): 81.6%

Compound: Clc1ccc(CSc2nc3cccccc-3n2)cc1 [Compound 28, 2-(p-Chlorophenyl)methylthio-cycloheptoimidazole]
- inhibition in vivo at 50 mg/kg (gastric-acid secretion): 39.1%

Compound: Nc1cccc(CSc2nc3cccccc-3n2)c1 [Compound 30, 2-(m-Aminophenyl)methylthio-cycloheptoimidazole]
- inhibition in vivo at 50 mg/kg (gastric-acid secretion): 52.5%

Compound: c1ccc(CSc2nc3cccccc-3n2)cc1 [Compound 31, 2-(Phenyl)methylthio-cycloheptoimidazole]
- inhibition in vivo at 50 mg/kg (gastric-acid secretion): 78.9%

Compound: Cc1oncc1CSc1nc2cccccc-2n1 [Compound 34, 2-(5-Methylisoxazole-4-yl)methylthio-cycloheptoimidazole]
- inhibition in vivo at 50 mg/kg (gastric-acid secretion): 70.1%

- inhibition at 300 µM ((H^+,K^+)ATPase): 48%
Compound: Cc1nc(-c2ccccc2)c(CSc2nc3cccccc-3n2)o1 [Compound 37, 2-(2-Methyl-4-Phenyloxazole-5-yl)methylthio-cycloheptoimidazole]

- inhibition at 300 µM ((H^+,K^+)ATPase): 25%
Compound: COc1ccc(C[S+]([O-])c2nc3cccccc-3n2)c(OC)c1OC (centres unmarked) [Compound 44, 2-(2,3,4-Trimethoxyphenyl)methylthio-cycloheptoimidazole-S-oxide]
- inhibition in vivo at 50 mg/kg (gastric-acid secretion): 89.8%

Compound: Cc1ccc(C[S+]([O-])c2nc3cccccc-3n2)cc1 (centres unmarked) [Compound 45, 2-(p-Tolyl)methylthio-cycloheptoimidazole-S-oxide]
- inhibition in vivo at 50 mg/kg (gastric-acid secretion): 90.7%

- inhibition at 300 µM ((H^+,K^+)ATPase): 32%
Compound: COc1ccc(C[S+]([O-])c2nc3cccccc-3n2)cc1 (centres unmarked) [Compound 47, 2-(p-Methoxyphenyl)methylthio-cycloheptoimidazole-S-oxide]
- inhibition in vivo at 50 mg/kg (gastric-acid secretion): 90.7%

Compound: CN(C)c1ccc(C[S+]([O-])c2nc3cccccc-3n2)cc1 (centres unmarked) [Compound 49, 2-(p-Dimethylaminophenyl)methylthio-cycloheptoimidazole-S-oxide]
- inhibition in vivo at 50 mg/kg (gastric-acid secretion): 33.6%

Compound: [O-][S+](Cc1c[nH]cn1)c1nc2cccccc-2n1 (centres unmarked) [Compound 51, 2-(4-imidazolyl)methylthio-cycloheptoimidazole-S-oxide]
- inhibition in vivo at 50 mg/kg (gastric-acid secretion): 63.6%

Compound: Cc1cc(C[S+]([O-])c2nc3cccccc-3n2)on1 (centres unmarked) [Compound 52, 2-(3-Methylisoxazole-5-yl)methylthio-cycloheptoimidazole-S-oxide]
- inhibition in vivo at 50 mg/kg (gastric-acid secretion): 96.9%

- inhibition at 300 µM ((H^+,K^+)ATPase): 45%
Compound: Cc1noc(C)c1C[S+]([O-])c1nc2cccccc-2n1 (centres unmarked) [Compound 53, 2(3,5-Dimethylisoxazole-4-yl)methylthio-cycloheptoimidazole-S-oxide]
- inhibition in vivo at 50 mg/kg (gastric-acid secretion): 95.7%

- inhibition at 300 µM ((H^+,K^+)ATPase): 46%
Compound: Nc1ccccc1CSc1nc2cccccc-2n1 [Compound 57, 2-(o-aminophenyl)methylthio-cycloheptoimidazol]
- inhibition in vivo at 50 mg/kg (gastric-acid secretion): 92.9%
